Measurements taken from patent US10934277B2, “Enantiomerically purified GPER agonist for use in treating disease states and conditions” (Linnaeus Therapeutics, Inc., priority 2018, dated 2021).
Values after ≈ are worked out from the molar mass of the structure shown. Values joined by “and” are separate entries in the source; they are usually repeats but may differ in a detail not shown here. Equal entries are not always repeated. Values belong to the compound of their own block, whether it stands above or below them.

Experiments:
[1] = Plasma concentration of SRR G-1 in rats after oral dosing (LC-MS/MS); format: in vivo; conditions: rat, PO 10 mg/kg, individual animals (R1-R9)
Source text: The results are shown in Tables 22-24 for each respectively.

[2] = Disproportionation of salts in water slurry; format: physicochemical
Source text: The possibility of disproportionation in water was investigated. […] The excess solids were recovered and reanalyzed by XRPD for evidence of freebase or benzenesulfonic acid.
The possibility of disproportionation in water was investigated. […] The excess solids were recovered and reanalyzed by XRPD for evidence of freebase or naphthalene-2-sulfonic acid.

[3] = Approximate solubility of SRR G-1 Form A in solvents; format: physicochemical
[4] = Kinetic solubility measurement in bio-relevant media; format: physicochemical; conditions: 37° C.; for Form Change: SGF; for solubility at 1 h / solubility at 2 h / solubility at 4 h / solubility at 24 h: thermodynamic from solid
[5] = Dynamic Vapor Sorption/Desorption (DVS); format: physicochemical
Source text: The weight change through the sorption/desorption cycle was less than 0.3% weight. Hysteresis was not observed. The material recovered from the Dynamic Vapor Sorption experiment was Form A by XRPD.
Moisture sorption/desorption data were collected on a VTI SGA-100 Vapor Sorption Analyzer. NaCl and PVP were used as calibration standards. Samples were not dried prior to analysis. Sorption and desorption data were collected over a range from 5% to 95% RH at 10% RH increments under a nitrogen purge. The equilibrium criterion used for analysis was less than 0.0100% weight change in 5 minutes with a maximum equilibration time of 3 hours. Data were not corrected for the initial moisture content of the samples.

[6] = Solubility measurement in pH buffers; format: physicochemical; conditions: 37° C., 24 hrs; for solubility at 24 h: aqueous buffer, thermodynamic from solid, read-out: Solubility; for Form Conversion: XRPD of residual solids
[7] = Physical stability of amorphous material; format: physicochemical
Method: Amorphous material crystallized to Form A upon exposure to either elevated temperature (within 4 days at 60° C.) or humidity (within 12 days at 75% RH).

[8] = Physical stability of Form B (desolvation); format: physicochemical
Method: The physical stability of Form B was investigated. […] Vacuum at 70° C.

[9] = tested on: YUMM1.7 melanoma cells; test: YUMM1.7 proliferation assay (4 day growth); format: cell-based; conditions: 500 nM
Method: YUMM1.7 cells were cultured for at least 1 passage after thawing and were cultured in DMEM with 5% FBS (Invitrogen) and 1% antibiotic-antimycotic (gibco) at 37C 5% CO2. Proliferation assays were performed by plating 15,000 cells in 12-well plates with 5 replicates per condition tested. Media and drugs were refreshed on Day 2. On Day 4, cells were trypsinized using 0.25 ml 0.05% Trypsin with EDTA (Invitrogen) for 5 minutes to detach from the plate, mixed with 0.75 ml of culture media, and counted using a hemocytometer.
Starting cell numbers were 15,000.

Plasma Conc. ([1]; time 0.500 h): 62.2 ng/mL and 50.6 ng/mL and 22.6 ng/mL
Plasma Conc. ([1]; time 1.00 h): 81.9 ng/mL and 67.5 ng/mL and 33.2 ng/mL
Plasma Conc. ([1]; time 2.00 h): 46.6 ng/mL and 39.9 ng/mL and 24.3 ng/mL
Plasma Conc. ([1]; time 4.00 h): 14.6 ng/mL and 14.0 ng/mL and 15.6 ng/mL
Plasma Conc. ([1]; time 8.00 h): 5.45 ng/mL and 6.09 ng/mL and 3.97 ng/mL
disproportionation in water ([2]; slurried in water for 5 days, XRPD of recovered solids (freebase Form A recovered)): disproportionation occurred
SMILES: CC(=O)c1ccc2c(c1)[C@@H]1C=CC[C@@H]1[C@H](c1cc3c(cc1Br)OCO3)N2.O=S(=O)(O)c1ccc2ccccc2c1 [SRR G-1 Napsylate Form A]
Plasma Conc. ([1]; time 24.0 h, LLOQ 0.100 ng/mL): 0.641 ng/mL and 0.558 ng/mL and 0.435 ng/mL

desolvation ([8]; exposure to 90 to 100° C. for 25 minutes): Almost complete desolvation
desolvation ([8]; exposure to 120° C.): Complete desolvation to Form C
desolvation ([8]; vacuum at 70° C. (or below)): not sufficient for desolvation to occur
SMILES: CC(=O)c1ccc2c(c1)[C@@H]1C=CC[C@@H]1[C@H](c1cc3c(cc1Br)OCO3)N2 [Form B, 1-((3aS,4R,9bR)-4-(6-bromobenzo[d][1,3]dioxol-5-yl)-3a,4,5,9b-tetrahydro-3H-cyclopenta[c]quinolin-8-yl)ethan-1-one]

Plasma Conc. ([1]; time 0.500 h): 39.2 ng/mL and 35.2 ng/mL and 34.1 ng/mL
Plasma Conc. ([1]; time 1.00 h): 43.9 ng/mL and 42.0 ng/mL and 44.5 ng/mL
Plasma Conc. ([1]; time 2.00 h): 28.5 ng/mL and 30.6 ng/mL and 32.3 ng/mL
Plasma Conc. ([1]; time 4.00 h): 20.0 ng/mL and 16.7 ng/mL and 19.5 ng/mL
Plasma Conc. ([1]; time 8.00 h): 8.17 ng/mL and 5.78 ng/mL and 6.18 ng/mL
disproportionation in water ([2]; slurried in water for 4 days, XRPD of recovered solids): disproportionation did not occur
SMILES: CC(=O)c1ccc2c(c1)[C@@H]1C=CC[C@@H]1[C@H](c1cc3c(cc1Br)OCO3)N2.O=S(=O)(O)c1ccccc1 [SRR G-1 Besylate Form A]
Plasma Conc. ([1]; time 24.0 h, LLOQ 0.100 ng/mL): 0.837 ng/mL and 0.668 ng/mL and 0.647 ng/mL

More lines, now with the values behind:

SMILES: CC(=O)c1ccc2c(c1)[C@@H]1C=CC[C@@H]1[C@H](c1cc3c(cc1Br)OCO3)N2 [SRR G-1 Form A, 1-((3aS,4R,9bR)-4-(6-bromobenzo[d][1,3]dioxol-5-yl)-3a,4,5,9b-tetrahydro-3H-cyclopenta[c]quinolin-8-yl)ethan-1-one]
solubility ([3]; oil or lipid, sesame oil): 2000 µg/mL (≈ 4850 µM)
solubility ([3]; organic solvent or mixture, ACN): 24000 µg/mL (≈ 58200 µM)
solubility ([3]; organic solvent or mixture, DCM): > 89000 µg/mL
solubility ([3]; organic solvent or mixture, DMSO): > 203000 µg/mL
solubility ([3]; organic solvent or mixture, EtOAc): > 65000 µg/mL
solubility ([3]; organic solvent or mixture, EtOH): 7000 µg/mL (≈ 17000 µM)
solubility ([3]; organic solvent or mixture, IPA): 4000 µg/mL (≈ 9700 µM)
solubility ([3]; organic solvent or mixture, MeOH): 6000 µg/mL (≈ 14600 µM)
solubility ([3]; organic solvent or mixture, THF): > 67000 µg/mL
solubility ([3]; organic solvent or mixture, acetone): > 122000 µg/mL
solubility ([3]; organic solvent or mixture, diethyl ether): 8000 µg/mL (≈ 19400 µM)
solubility ([3]; organic solvent or mixture, toluene): 40000 µg/mL (≈ 97000 µM)
solubility ([3]; water): < 2000 µg/mL
FC (Form Change) ([4]; FaSSIF, 1 h): No
FC (Form Change) ([4]; FaSSIF, 2 h): No
FC (Form Change) ([4]; FaSSIF, 4 h): No
FC (Form Change) ([4]; FaSSIF, 24 h): No
FC (Form Change) ([4]; FeSSIF, 1 h): No
FC (Form Change) ([4]; FeSSIF, 2 h): No
FC (Form Change) ([4]; FeSSIF, 4 h): No
FC (Form Change) ([4]; FeSSIF, 24 h): No
Form Change ([4]; 1 h): No
Form Change ([4]; 2 h): No
Form Change ([4]; 4 h): No
Form Change ([4]; 24 h): No
solubility at 1 h ([4]; simulated gastric fluid, SGF (pH 1.8), 1 h): 5.9 µg/mL (≈ 14.3 µM)
solubility at 2 h ([4]; simulated gastric fluid, SGF (pH 1.8), 2 h): 6.2 µg/mL (≈ 15 µM)
solubility at 4 h ([4]; simulated gastric fluid, SGF (pH 1.8), 4 h): 6.6 µg/mL (≈ 16 µM)
solubility at 24 h ([4]; simulated gastric fluid, SGF (pH 1.8), 24 h): 5.7 µg/mL (≈ 13.8 µM)
solubility at 1 h ([4]; FaSSIF (pH 6.5), 1 h): 7.1 µg/mL (≈ 17.2 µM)
solubility at 2 h ([4]; FaSSIF (pH 6.5), 2 h): 6.8 µg/mL (≈ 16.5 µM)
solubility at 4 h ([4]; FaSSIF (pH 6.5), 4 h): 7.1 µg/mL (≈ 17.2 µM)
solubility at 24 h ([4]; FaSSIF (pH 6.5), 24 h): 7.3 µg/mL (≈ 17.7 µM)
solubility at 1 h ([4]; FeSSIF (pH 5.0), 1 h): 36 µg/mL (≈ 87.3 µM)
solubility at 2 h ([4]; FeSSIF (pH 5.0), 2 h): 37 µg/mL (≈ 89.7 µM)
solubility at 4 h ([4]; FeSSIF (pH 5.0), 4 h): 38 µg/mL (≈ 92.2 µM)
solubility at 24 h ([4]; FeSSIF (pH 5.0), 24 h): 37 µg/mL (≈ 89.7 µM)
hygroscopicity ([5]; DVS isotherm): low hygroscopicity
weight change through the sorption/desorption cycle ([5]; DVS, 5% to 95% RH): less than 0.3 % weight
solubility at 24 h ([6]; pH 2.0 buffer): < 0.72 µg/mL
solubility at 24 h ([6]; pH 3.0 buffer): < 0.72 µg/mL
solubility at 24 h ([6]; pH 4.0 buffer): < 0.72 µg/mL
solubility at 24 h ([6]; pH 5.0 buffer): < 0.72 µg/mL
solubility at 24 h ([6]; pH 6.0 buffer): < 0.72 µg/mL
solubility at 24 h ([6]; pH 7.0 buffer): < 0.72 µg/mL
solubility at 24 h ([6]; pH 8.0 buffer): < 0.72 µg/mL
Form Conversion ([6]; pH 2.0 buffer): No
Form Conversion ([6]; pH 3.0 buffer): No
Form Conversion ([6]; pH 4.0 buffer): No
Form Conversion ([6]; pH 5.0 buffer): No
Form Conversion ([6]; pH 6.0 buffer): No
Form Conversion ([6]; pH 7.0 buffer): No
Form Conversion ([6]; pH 8.0 buffer): No

SMILES: CC(=O)c1ccc2c(c1)[C@@H]1C=CC[C@@H]1[C@H](c1cc3c(cc1Br)OCO3)N2 [Amorphous material]
time to crystallization to Form A ([7]; elevated temperature, 60° C.): ≤ 4 days
time to crystallization to Form A ([7]; humidity, 75% RH): ≤ 12 days

SMILES: CC(=O)c1ccc2c(c1)[C@@H]1C=CC[C@@H]1[C@H](c1cc3c(cc1Br)OCO3)N2 (racemic) [Racemic G-1, (±)1-(4-(6-bromobenzo[d][1,3]dioxol-5-yl)-(3 aS*,4R*,9bR*)-tetrahydro-3H-cyclopenta[c]quinolin-8-yl)ethan-1-one, reference compound]
doubling compared with that seen with the vehicle ([9]; 4 days): about half
Doublings ([9]; 4 days, starting cell number 15,000): 3.4
cell count after 4 days of growth (single replicates) ([9]; starting cell number 15,000, 5 replicates): 16 tens of thousands and 18 tens of thousands and 19 tens of thousands and 17 tens of thousands and 24 tens of thousands
average cell count after 4 days of growth ([9]; starting cell number 15,000, average of 5 replicates): 18.8 tens of thousands
